Legend:
Assay type in all cases: in vivo
[1] = test system: Beagle dogs; assay: Intraocular pressure in dogs (pneumatonometry); details: dog, 0.03% topical 25 μL drop to one eye, 5 day study
Protocol: (§1) Intraocular pressure studies in dogs involved pneumatonometry performed in conscious, Beagle dogs of both sexes (10–15 kg). The animals remained conscious throughout the study and were gently restrained by hand. Drugs were administered topically to one eye as a 25 μL volume drop, the other eye received 25 μL vehicle (0.1% polysorbate 80:10 mM TRIS) as a control. Proparacaine (0.1%) was used for corneal anesthesia during tonometry.
Intraocular pressure was determined just before drug administration and at 2, 4 and 6 hr thereafter on each day of the 5 day study. Drug was administered immediately after the first IOP reading.

[2] = test system: Beagle dogs; assay: Ocular surface hyperemia in dogs; details: dog, 0.03% topical; score 0.5 trace, 1 mild, 2 moderate, 3 severe
Protocol: Ocular surface hyperemia was visually assessed and scored according to a system typically used clinically.
Ocular surface hyperemia was evaluated at the same time points as intraocular pressure measurement. It should be noted that untreated dog eyes frequently have a pink/red tone. Thus, values of trace or even mild are not necessarily out of the normal range.

[3] = test system: cynomolgus monkeys; assay: Intraocular pressure in cynomolgus monkeys; details: monkey, 0.03% topical, single dose, 2-24 h
Protocol: as §1
An analogous procedure was carried out with cynomolgus monkeys with measurements at 2, 4, 6, and 24 hours after a single dose.

Structure (SMILES)	Max. ΔIOP (mm Hg) [1] [mm Hg]	Max hyperemia [2]	Max. ΔIOP (mm Hg) [3] [mm Hg]
CC(C)OC(=O)CCC/C=C\C[C@H]1C(=O)CC[C@@H]1/C=C/C(O)CCc1sc2ccccc2c1Cl (single isomer, unassigned) [Compound 16b]	−5.7	0.9	−3.4
CC(C)OC(=O)CCC/C=C\C[C@H]1C(=O)CC[C@@H]1/C=C/C(O)CCc1sc2ccccc2c1Cl (single isomer, unassigned) [Compound 16c]	−4.8	1.0	−7.8

Source: US7101906B2, “2,3,4-substituted cyclopentanones as therapeutic agents” (Allergan, Inc., priority 2004, dated 2006)
